Measurements taken from US8101615B2, “1,4-diaryl-dihydropyrimidin-2-ones and their use as human neutrophil elastase inhibitors” (Bayer Pharma Aktiengesellschaft, priority 2004, dated 2012).

Experiments:
[1] = biological target: T1, human neutrophil elastase (HNE) (Homo sapiens, UniProt P08246); assay: In vitro inhibition of HNE using a fluorogenic peptide substrate (Example I-A); type: biochemical; details: fluorogenic peptide substrate MeOSuc-Ala-Ala-Pro-Val-AMC, 384 MTP assay format
T1 construct: purchased SERVA Electrophoresis GmbH, Heidelberg, Germany #20927.01
T1 sequence (P08246 30-267): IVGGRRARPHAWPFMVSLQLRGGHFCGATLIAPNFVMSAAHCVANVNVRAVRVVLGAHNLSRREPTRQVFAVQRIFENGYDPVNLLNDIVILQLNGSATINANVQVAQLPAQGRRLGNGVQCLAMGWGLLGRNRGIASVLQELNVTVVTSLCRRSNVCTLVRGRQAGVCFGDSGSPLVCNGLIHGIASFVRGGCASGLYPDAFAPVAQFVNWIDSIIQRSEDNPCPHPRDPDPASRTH
Method: I. In vitro Enzyme Assays of Human Neutrophil Elastase (HNE)
The test solution is prepared by mixing 10 μl of test compound dilution, 20 μl of HNE enzyme dilution (final concentration 8-0.4 μU/ml, routinely 2.1 μU/ml) and 20 μl of substrate dilution (final concentration 1 mM-1 μM, routinely 20 μM), respectively. The solution is incubated for 0-2 hrs at 37° C. (routinely one hour). The fluorescence of the liberated AMC due to the enzymatic reaction is measured at 37° C. (TECAN spectra fluor plus plate reader). […] IC50 values are determined by RFU-versus-[I] plots. Km and Km(app.) values are determined by Lineweaver-Burk plots and converted to Ki values by Dixon plots.

[2] = system: human polymorphonuclear cells (PMNs); assay: In vitro PMN elastolysis assay (Example II-A); type: cell-based; details: mean±s.e.m.
Method: This assay is used to determine the elastolytic potential of human polymorphonuclear cells (PMNs) and assess the proportion of degradation due to neutrophil elastase [cf. Z. W. She et al., Am. J. Respir. Cell. Mol. Biol. 9, 386-392 (1993)].
Tritiated elastin, in suspension, is coated on to a 96 well plate at 10 μg per well. Test and reference [ZD-0892 (J. Med. Chem. 40, 1876-1885, 3173-3181 (1997), WO 95/21855) and α1 protease inhibitor (α1PI)] compounds are added to the wells at the appropriate concentrations. Human PMNs are separated from peripheral venous blood of healthy donors and resuspended in culture media. The neutrophils are added to the coated wells at concentrations ranging between 1×10^6 to 1×10^5 cells per well. Porcine pancreatic elastase (1.3 μM) is used as a positive control for the assay, and α1PI (1.2 μM) is used as the positive inhibitor of neutrophil elastase. The cellular control is PMNs without compound at each appropriate cell density. The cells plus compounds are incubated in a humidified incubator at 37° C. for 4 hours. The plates are centrifuged to allow the harvest of cell supernatant only. […] The plates are dried until no liquid is visible in the wells and read in a beta counter for 3 minutes per well. […]
The compounds of this invention are evaluated for their inhibitory activity in this HNE-dependent model of neutrophil elastolysis.

Molecule | IC50 [1] [nM] | further results
CC1=C(CO)C(c2ccc(C#N)cc2)NC(=O)N1c1cccc(C(F)(F)F)c1 (centres unmarked) [Example 1, 4-{5-(Hydroxymethyl)-6-methyl-2-oxo-1-[3-(trifluoromethyl)phenyl]-1,2,3,4-tetrahydropyrimidin-4-yl}benzonitrile] | 20 | –
CC1=C(C(=O)NC2CC2)C(c2ccc(C#N)cc2)NC(=O)N1c1cccc(C(F)(F)F)c1 (centres unmarked) [Example 6, 4-(4-Cyanophenyl)-N-cyclopropyl-6-methyl-2-oxo-1-[3-(trifluoromethyl)phenyl]-1,2,3,4-tetrahydropyrimidine-5-carboxamide] | 200 | –
CC1=C(C(=O)NCc2ccccc2F)C(c2ccc(C#N)cc2)NC(=O)N1c1cccc(C(F)(F)F)c1 (centres unmarked) [Example 14] | 1000 | –
CC1=C(C(=O)C2CCCCC2)C(c2ccc(C#N)cc2)NC(=O)N1c1cccc(C(F)(F)F)c1 (centres unmarked) [Example 21, 4-{5-(Cyclohexylcarbonyl)-6-methyl-2-oxo-1-[3-(trifluoromethyl)phenyl]-1,2,3,4-tetrahydropyrimidin-4-yl}benzonitrile] | 130 | –
COC(=O)c1coc(CN2C(=O)N(c3cccc(C(F)(F)F)c3)C(C)=C(C(=O)C3CC3)C2c2ccc(C#N)cc2)n1 (centres unmarked) [Example 43, Methyl 2-{[6-(4-cyanophenyl)-5-(cyclopropylcarbonyl)-4-methyl-2-oxo-3-[3-(trifluoromethyl)phenyl]-3,6-dihydropyrimidin-1(2H)-yl]methyl}-1,3-oxazole-4-carboxylate] | 23 | –
CC1=C(C(=O)C2CC2)C(c2ccc(C#N)cc2)N(CC(=O)NS(=O)(=O)CC(F)(F)F)C(=O)N1c1cccc(C(F)(F)F)c1 (centres unmarked) [Example 45, 2-[6-(4-Cyanophenyl)-5-(cyclopropylcarbonyl)-4-methyl-2-oxo-3-[3-(trifluoromethyl)phenyl]-3,6-dihydropyrimidin-1(2H)-yl]-N-[(2,2,2-trifluoroethyl)sulfonyl]acetamide] | 20 | –
CC1=C(C(=O)NS(=O)(=O)CC(F)(F)F)C(c2ccc(C#N)cc2)N(CC(=O)OC(C)(C)C)C(=O)N1c1cccc(C(F)(F)F)c1 (centres unmarked) [Example 69] | 50 | –
CC1=C(C(=O)NS(=O)(=O)c2ccc(C#N)cc2)C(c2ccc(C#N)cc2)NC(=O)N1c1cccc(C(F)(F)F)c1 (centres unmarked) [Example 73] | 1000 | –
CC1=C(CCC(=O)O)C(c2ccc(C#N)cc2)NC(=O)N1c1cccc(C(F)(F)F)c1 (centres unmarked) [Example 78, 3-{4-(4-Cyanophenyl)-6-methyl-2-oxo-1-[3-(trifluoromethyl)phenyl]-1,2,3,4-tetrahydropyrimidin-5-yl}propanoic acid] | 50 | –
COc1ccc(C(=O)N[C@H](C(=O)N2CCC[C@H]2C(=O)N[C@H](C(=O)C(F)(F)F)C(C)C)C(C)C)cc1 [ZD-0892] | – | IC50 ([2]; n=2 different donors at 3.6×10^5 cells per well): 45.5 ± 7.75 nM
α1PI: α1 protease inhibitor, used as the positive inhibitor of neutrophil elastase | – | inhibition of 3H-elastin elastolysis ([2]; at 1.2 μM, n=3 different donors at 3.6×10^5 cells per well): 83.46±3.97%
